Source: ChEMBL document CHEMBL3085710, “Pahangensin A and B, two new antibacterial diterpenes from the rhizomes of Alpinia pahangensis Ridley” (2013)
Values after ≈ are worked out from the molar mass of the structure shown.

Assays:
Bacillus subtilis = assay: Antibacterial activity against Bacillus subtilis (Ehrenberg) Cohn ATCC 6051 after overnight incubation by broth microdilution method; assay type: functional
Escherichia coli = assay: Antibacterial activity against Escherichia coli (Migula) Castellani and Chalmers ATCC 25922 after overnight incubation by broth microdilution method; assay type: functional
Salmonella sp. = assay: Antibacterial activity against Salmonella sp. ATCC 700623 after overnight incubation by broth microdilution method; assay type: functional
Bacillus cereus = assay: Antibacterial activity against Bacillus cereus Frankland and Frankland ATCC 11778 after overnight incubation by broth microdilution method; assay type: functional
Salmonella typhimurium = assay: Antibacterial activity against Salmonella typhimurium (Loeffler) Castellani and Chalmers ATCC 14028 after overnight incubation by broth microdilution method; assay type: functional, Salmonella enterica subsp. enterica serovar Typhimurium; conditions: Salmonella enterica
Staphylococcus aureus = assay: Antibacterial activity against Staphylococcus aureus Rosenbach ATCC 9144 after overnight incubation by broth microdilution method; assay type: functional

Row | SMILES | MIC (Bacillus subtilis) | MIC (Escherichia coli) | MIC (Salmonella sp.) | MIC (Bacillus cereus) | MIC (Salmonella typhimurium) | MIC (Staphylococcus aureus)
1 | O=C(N[C@H](CO)[C@H](O)c1ccc([N+](=O)[O-])cc1)C(Cl)Cl [CHLORAMPHENICOL] | 15.6 µg/mL (≈ 48.4 µM) | 7.81 µg/mL (≈ 24.2 µM) | 15.6 µg/mL (≈ 48.4 µM) | 15.6 µg/mL (≈ 48.4 µM) | 15.6 µg/mL (≈ 48.3 µM) | 31.2 µg/mL (≈ 96.7 µM)
2 | CC1(C)S[C@@H]2[C@H](NC(=O)Cc3ccccc3)C(=O)N2[C@H]1C(=O)O [PENICILLIN G] | 15.6 µg/mL (≈ 46.7 µM) | 125 µg/mL (≈ 374 µM) | 31.2 µg/mL (≈ 93.5 µM) | 62.5 µg/mL (≈ 187 µM) | 125 µg/mL (≈ 374 µM) | 3.91 µg/mL (≈ 11.7 µM)
3 | CN[C@@H]1[C@H](O[C@H]2[C@H](O[C@H]3[C@H](O)[C@@H](O)[C@H](N=C(N)N)[C@@H](O)[C@@H]3N=C(N)N)O[C@@H](C)[C@]2(O)C=O)O[C@@H](CO)[C@H](O)[C@H]1O [STREPTOMYCIN] | 31.2 µg/mL (≈ 53.7 µM) | 15.6 µg/mL (≈ 26.9 µM) | 15.6 µg/mL (≈ 26.9 µM) | 15.6 µg/mL (≈ 26.9 µM) | 62.5 µg/mL (≈ 107 µM) | 31.2 µg/mL (≈ 53.7 µM)
4 | C=C1CC[C@H]2C(C)(C)CCC[C@]2(C)[C@H]1C/C=C(/C=O)CC(=O)OC |  |  |  | 52.1 µg/mL (≈ 157 µM) |  | 
5 | C=C1CC[C@H]2C(C)(C)CCC[C@]2(C)[C@H]1/C=C/C1=C(C2=C(/C=C/[C@H]3C(=C)CC[C@H]4C(C)(C)CCC[C@]34C)COC2=O)C(=O)OC1 | 31.2 µg/mL (≈ 52.2 µM) |  |  | 31.2 µg/mL (≈ 52.2 µM) |  | 52.1 µg/mL (≈ 87 µM)
